From article PMC6810216, “Human-to-Human Transmission of Influenza A(H3N2) Virus with Reduced Susceptibility to Baloxavir, Japan, February 2019” (Emerging Infectious Diseases, 2019)
pIC50: −log10 of the molar value.

Legend:
[1] = system: influenza A(H3N2) viruses isolated in the 2018–19 season in Japan; assay: microbe, parasite or virus in culture; type: cell-based; settings: n = 83, read-out: Median IC50 + SD
[2] = biological target: neuraminidase (NA) of A(H3N2) of 2018–19 (Influenza A virus (H3N2), UniProt A0A193ACB1); type: biochemical; settings: n = 170; read-out: Median IC50 + SD

Structure (SMILES)	pIC50 [1]	pIC50 [2]
CCC(CC)[C@H](NC(C)=O)[C@@H]1[C@H](O)[C@@H](C(=O)O)C[C@H]1N=C(N)N [Peramivir, peramivir]		9.89
